Results reported in article PMC8563733, “The transcriptional corepressor CtBP2 serves as a metabolite sensor orchestrating hepatic glucose and lipid homeostasis” (Nature Communications, 2021).
Read-outs that look alike come from different tables or passages of the source.

Tests used:
[1] = biological target: T1, CtBP2 (C-terminal binding protein 2) (Homo sapiens, UniProt P56545); test: microscale thermophoresis; supported by DSF (Kd […])
T1 construct: full-length CtBP2 with strep-tag and HA-tag tandemly fused to the C-terminus (baculovirus)

[2] = biological target: T1, CtBP2 (C-terminal binding protein 2); test: as above; remark: listed apart in the source

Compound	Kd [1]	Kd [2]
NC(=O)C1=CN([C@@H]2O[C@H](COP(=O)(O)OP(=O)(O)OC[C@H]3O[C@@H](n4cnc5c(N)ncnc54)[C@H](O)[C@@H]3O)[C@@H](O)[C@H]2O)C=CC1 [NADH]	19.5 ± 6.61 µM	
CCCCCCCC/C=C\CCCCCCCC(=O)SCCNC(=O)CCNC(=O)[C@H](O)C(C)(C)COP(=O)(O)OP(=O)(O)OC[C@H]1O[C@@H](n2cnc3c(N)ncnc32)[C@H](O)[C@@H]1OP(=O)(O)O [oleoyl-CoA]		18.8 ± 1.28 µM
